The results in this text go back to PubChem BioAssay AID1996.

Values after ≈ are worked out from the molar mass of the structure shown.

The conditions of the series: buffer; pH 7.4; 200.0 µM.
`CCC(C)n1c(O)c(C=NCCN2CCOCC2)c(=O)[nH]c1=S` (stereo not drawn): the solubility (kinetic) (in general, solubility judged after dilution from a stock solution rather than from solid) is above 51.1 µg/mL.
Then `N#CCc1nc2ccc(S(=O)(=O)N3CCOCC3)cc2s1`, with 37.2 µg/mL (≈ 115 µM); and `Cc1nc(N2CCOCC2)nc(Oc2ccccc2)c1[N+](=O)[O-]`, with 5.8 µg/mL (≈ 18.3 µM); and `Cc1ccccc1NC(=O)Cc1nc(COC(=O)c2ccc(NC(N)=O)cc2)cs1`, with 17.6 µg/mL (≈ 41.5 µM).
As to `CC(=O)Oc1ccc2c(=O)c(-c3nc4ccccc4s3)coc2c1`, the kinetic solubility is 1 µg/mL (≈ 2.96 µM). Compared with the last molecule, the solubility kinetic is about 18-fold lower.
Then `O=C(Nc1ccccc1Cl)c1cc(=O)c2ccccc2o1`, with 0.7 µg/mL (≈ 2.34 µM).
Then `O=C1C=C(N2CCOCC2)C2(CCCCC2)O1`, with above 35.6 µg/mL; and `Cc1ccc(S(=O)(=O)CCC(=O)Nc2cccc(Cl)c2)cc1`, with 23.9 µg/mL (≈ 70.7 µM).
On to `CN(C)c1cccc2c(C#N)ccc(N(C)C)c12`, for which the kinetic solubility is below 0.2 µg/mL.
Then `CN(C)S(=O)(=O)c1cccc(C(=O)OCC(=O)N2CCCC2=O)c1`, with above 53.2 µg/mL.
Then `Cc1ccc(NC(=S)c2ccncc2)cc1`, with 33.5 µg/mL (≈ 147 µM); and `CCOC(=O)C1(C)NC(c2ccco2)C2C(=O)N(C)C(=O)C21` (stereo not drawn), with above 45.9 µg/mL.
As to `O=C(Cc1cccs1)Nc1ccccc1F`, the solubility (kinetic) was above 35.3 µg/mL.
Then `COc1ccccc1NC(=O)CSc1nc(SC)ns1`, with 32.8 µg/mL (≈ 100 µM).
As for `CCOC(=O)c1cc2c(n(-c3ccc(Cl)cc3)c1=O)CCCC2=O`, the kinetic solubility is above 51.9 µg/mL.
Then `CCC(C)c1ccc(NC(=O)COC(=O)CCNS(=O)(=O)c2cccs2)cc1` (stereo not drawn), with 21.2 µg/mL (≈ 49.9 µM).
Then `CC(=O)C1C(c2ccccc2)c2c(noc2C)CC1(C)O` (stereo not drawn), with above 42.8 µg/mL; and `Cc1ccc(S(=O)(=O)N2CCOCC2)cc1NC(=O)c1cc2ccccc2oc1=O`, with 1.1 µg/mL (≈ 2.57 µM).
Then `Cc1ccc(C)c(S(=O)(=O)Nc2cc(C)on2)c1`, with above 39.9 µg/mL.
`CCC(C)Nc1nc(N)c([N+](=O)[O-])c(Nc2cc(OC)ccc2OC)n1` (stereo not drawn) had a solubility (kinetic) of 1.2 µg/mL (≈ 3.31 µM).
Then `COc1ccc(C=NOCC(=O)OCC(=O)Nc2ccc(OC)cc2)cc1`, with 16.1 µg/mL (≈ 43.2 µM); and `Cl.O=C(CN1CCCC1)Nc1ccc2c(c1)CCC2`, with 41.3 µg/mL; and `Cc1cc(/C(N)=N/OC(=O)Nc2ccccc2)no1`, with 15.7 µg/mL (≈ 60.3 µM).
Then `O=C(O)CSc1ncnc2sc3c(c12)CCCC3`, with above 42.1 µg/mL; and `COc1cc(CC(=O)N2CCN(C(=O)C3CCCO3)CC2)cc(OC)c1OC` (stereo not drawn), with above 58.9 µg/mL; and `Cc1[nH]c2ccccc2c1C(=O)C(=O)N1CCN(C(=O)c2ccco2)CC1`, with above 54.8 µg/mL.
Then `Cc1ccc(C(=O)Nc2ccccc2N2CCCC2)cc1`, with 31.4 µg/mL (≈ 112 µM); and `Cc1cc2ncn(C(=O)c3ccc(F)cc3)c2cc1C`, with 21.6 µg/mL (≈ 80.5 µM); and `CCCCNC(=O)CCC(=O)N1CCN(C(c2ccccc2)c2ccccc2)CC1.Cl`, with above 66.6 µg/mL.
The molecule `O=C(Cn1c(=O)oc2ccccc21)Nc1ccc(Cl)cc1` gave a solubility (kinetic) of 1.8 µg/mL (≈ 5.95 µM).
Then `CC(C)OCCCNC(=O)C1CC(=O)N(CCc2ccccc2)C1` (stereo not drawn), with 48.9 µg/mL (≈ 147 µM); and `Brc1c(NC2=NCCN2)ccc2nccnc12`, with 11.2 µg/mL (≈ 38.3 µM); and `CC1(C)Cc2cccc(OCC(=O)NCc3cccs3)c2O1`, with above 47.6 µg/mL.
Then `CCCCn1c(=O)c(C(=O)Nc2ccccc2N)c(O)c2ccccc21`, with below 0.3 µg/mL.
Then `COc1ccc(Cl)cc1C(=O)NCCN1CCOCC1`, with above 44.8 µg/mL; and `Cc1cn2c(=O)c(C(=O)N3CCN(c4ccccc4)CC3)cnc2s1`, with above 53.2 µg/mL.
`COC(=O)Cc1ccc(NC(=S)Nc2cccc(C)n2)cc1`: the kinetic solubility is 1.6 µg/mL (≈ 5.07 µM).
Then `COc1ccc(S(=O)(=O)NC(Cc2ccccc2)C(=O)O)cc1` (stereo not drawn), with above 50.3 µg/mL.
Then `Cl.Clc1ccc(CNCC2CCCO2)c(Cl)c1` (stereo not drawn), with 37 µg/mL; and `O=C(CSc1ncc(C(F)(F)F)cc1Cl)N1CCNC1=O`, with above 51 µg/mL.
Turning to `Cc1sc(N)nc1-c1ccc2c(c1)OCCO2`, the solubility (kinetic) is 19.5 µg/mL (≈ 78.5 µM).
Then `CCc1ccccc1NC(=S)N1CCN(c2cccc(OC)c2)CC1`, with 2.2 µg/mL (≈ 6.19 µM); and `O=C(COc1ccccc1O)NCCN1CCOCC1`, with above 42 µg/mL; and `CCCn1c(=O)[nH]c(=O)c2[nH]cnc21`, with above 29.1 µg/mL.
Take `O=C(C1CC(=O)N(c2ccccc2)C1)N1CCCCCC1` (stereo not drawn): the kinetic solubility is above 43 µg/mL.
Then `O=c1[nH]c(=S)n(C2CC2)c(O)c1C=NCc1cccnc1`, with above 45.4 µg/mL.
Then `CCOc1ccc(C(=O)CCC(=O)N2CCN(c3ccc(O)cc3)CC2)cc1`, with 16.6 µg/mL (≈ 43.4 µM); and `O=C(Cc1ccccc1)NC(C(=O)O)C(O)c1ccc([N+](=O)[O-])cc1` (stereo not drawn), with above 51.6 µg/mL.
Then `COc1cccc2cc(C(=O)N3CCCc4ccccc43)oc12`, with 15.3 µg/mL (≈ 49.8 µM).
On to `O=C(COC(=O)COc1ccccc1[N+](=O)[O-])NCc1ccc2c(c1)OCO2`, for which the solubility (kinetic) is above 58.2 µg/mL.
Then `COCc1nc2ccccc2n1Cc1ccccc1C`, with above 40 µg/mL; and `OC(c1ccccc1)(c1ccccc1)C1CCNCC1`, with above 40.1 µg/mL.
Then `CCCCc1ccc(NC(=O)NCc2ccccn2)cc1`, with 13.1 µg/mL (≈ 46.2 µM); and `Cc1ccc2nc(C)cc(C(=O)NC3CCCCCC3)c2c1`, with 3.6 µg/mL (≈ 12.1 µM).
Then `CCCc1nnc(SCC(=O)Nc2nccs2)o1`, with above 42.7 µg/mL; and `O=C(COC(=O)c1cc[n+]([O-])cc1)NC(=O)c1ccc(OC(F)F)cc1`, with above 54.9 µg/mL; and `N#Cc1cccc(C(=O)Nc2cc(S(=O)(=O)N3CCOCC3)ccc2N2CCCC2)c1`, with above 66.1 µg/mL.
With `CCn1c(CNC(=O)C23CC4CC(CC(C4)C2)C3)nnc1SC`, the kinetic solubility is above 50.2 µg/mL.
Then `O=S(=O)(c1ccccc1)c1nc(NC2CC2)sc1Cl`, with 42.8 µg/mL (≈ 136 µM); and `CN(C(=O)c1ccco1)c1nc(-c2ccccc2)cs1`, with below 0.3 µg/mL.
Then `COc1cccc(N2CC(C(=O)Nc3ccc(F)cc3)CC2=O)c1` (stereo not drawn), with 20.3 µg/mL (≈ 61.8 µM).
Then `O=[N+]([O-])c1ccccc1S(=O)(=O)Nc1ncccn1`, with above 42 µg/mL.
In turn, `Nc1nccc(-c2ccc(-n3cnc4ccccc43)cc2)n1` came in with a solubility (kinetic) of 2 µg/mL (≈ 6.96 µM).
Then `O=C(COC(=O)COc1ccccc1)NC1CCCC1`, with above 41.6 µg/mL; and `O=[N+]([O-])c1cc(CN2CCCCCC2)ccc1O`, with 33.3 µg/mL (≈ 133 µM); and `O=C1C(=O)N(CCS(=O)(=O)c2ccccc2)c2ccccc21`, with above 47.3 µg/mL.
Then `Cc1ccc(S(=O)(=O)N2CCCC2c2cccnc2)cc1` (stereo not drawn), with above 45.4 µg/mL; and `COc1ccc(Cl)cc1C(=O)N1CCN(Cc2ccc3c(c2)OCO3)CC1`, with 47.4 µg/mL (≈ 122 µM); and `CCOc1ccc(N(C)Cc2cc(=O)oc3ccc(OC)cc23)cc1`, with 8.1 µg/mL (≈ 23.9 µM).
Then `COc1ccc2cc(Br)ccc2c1CC(=O)N(C)C`, with 21.1 µg/mL (≈ 65.5 µM).
Molecule `CC(C)(C)OC(=O)N1CCC(CNC(=O)Nc2ccccc2)CC1` showed a solubility (kinetic) above 50 µg/mL.
The molecule `CCNC(=O)c1ccc(N(C)S(=O)(=O)c2cccs2)cc1` displayed a solubility (kinetic) above 48.7 µg/mL.
`CC(=O)NC(CC(=O)O)c1ccccc1` (stereo not drawn): the solubility (kinetic) is above 31.1 µg/mL.
Then `O=C(O)c1ccc2c(c1)C(=O)N(c1ccc([N+](=O)[O-])cn1)C2=O`, with above 47 µg/mL; and `CCOC(=O)CNC(=S)N(Cc1ccccc1)Cc1ccccc1F`, with 11.7 µg/mL (≈ 32.5 µM); and `COC(=O)[C@@H](NC(=O)NCCC1=CCCCC1)C(C)C`, with above 42.4 µg/mL.
Then `COc1cc(C(=O)N[C@H](C(=O)OCC(=O)NC2CCCCCC2)C(C)C)cc(OC)c1OC`, with above 69.7 µg/mL; and `CCOC(=O)C1CCN(S(=O)(=O)c2ccc(Cl)nc2)CC1`, with 47.3 µg/mL (≈ 142 µM); and `Cc1cnc(C(=O)OCC(=O)NC(=O)c2ccccc2)cn1`, with above 44.9 µg/mL.
`S=C1NCN(Cc2cccnc2)CN1Cc1ccccc1` gave a solubility (kinetic) above 44.8 µg/mL.
Then `CC1CCN(C(=O)CN(Cc2ccc(Cl)cc2)S(C)(=O)=O)CC1`, with 52.8 µg/mL (≈ 147 µM); and `O=C(Nc1sc2c(c1C(=O)O)CCC2)C(=O)N1CCOCC1`, with above 48.7 µg/mL; and `O=[N+]([O-])c1ccc(COP(=O)([O-])OCc2ccc([N+](=O)[O-])cc2)cc1.[Na+]`, with 58.2 µg/mL.
Then `CC(C)[C@H](NC(=O)c1cccc(CN(Cc2ccccc2)C(=O)/C=C/c2ccccc2)c1)C(=O)O`, with 69 µg/mL (≈ 147 µM).
Then `Cc1ccc(S(=O)(=O)N2CC(=NN=C(N)N)C2)cc1`, with above 42.2 µg/mL; and `CC(C)(C)OC(=O)NC(CC(=O)OCc1ccccc1)C(=O)O` (stereo not drawn), with above 48.5 µg/mL.
Molecule `COc1ccc(NC(=O)Nc2c(C)noc2-c2ccccc2)cc1` displayed a solubility (kinetic) of 7.5 µg/mL (≈ 23.2 µM).
Then `Cl.NS(=O)(=O)c1ccc(CCNCC#Cc2ccccc2)cc1`, with above 52.6 µg/mL; and `COc1cc(NC(=O)Cc2ccccc2)nc(OC)n1`, with above 41 µg/mL; and `COc1ccc(CC(=O)Nc2c(C(N)=O)oc3ccccc23)cc1`, with 1.6 µg/mL (≈ 4.93 µM).
Then `Cc1ccc(S(=O)(=O)NC(C)CCc2ccccc2)cc1C(N)=O` (stereo not drawn), with above 52 µg/mL; and `[Cl-].c1ccc(CNc2cccc[nH+]2)cc1`, with above 33.1 µg/mL; and `COc1cccc(OCC(=O)Nc2ccccc2-c2ccccc2)c1`, with 1.5 µg/mL (≈ 4.5 µM).
Then `CN1CCCC(C(=O)c2ccc(-c3ccccc3)cc2)C1` (stereo not drawn), with 27.3 µg/mL (≈ 97.7 µM).
`CC(C)N1CCN(Cc2ccncc2)CC1CCO` (stereo not drawn) had a solubility (kinetic) of 24.3 µg/mL (≈ 92.3 µM). The solubility kinetic values of the last two molecules are within 1.5-fold of each other.
`O=C(CSc1c[nH]c2ccccc12)NC1CCCC1` came in with a kinetic solubility above 41.2 µg/mL.
`Cc1ccc(-c2nc(C=Nc3cccc(C)c3)c(O)o2)cc1` displayed a kinetic solubility of 0.7 µg/mL (≈ 2.39 µM).
`Cc1cc(/C=C(\C#N)C(=O)O)c(C)n1CCC(C)C`: the solubility (kinetic) is above 39.1 µg/mL.
Consider `Cc1ccc(C(=O)/C=C/N(C)C)cn1`, for which the kinetic solubility was 26.6 µg/mL (≈ 140 µM).
Then `Cc1ccc(CNc2nc3ccccc3n2C)cc1`, with above 37.7 µg/mL; and `Cc1ccccc1CN(C)CCc1ccccn1.O=C(O)C(=O)O`, with 25.6 µg/mL.
Turning to `O=C(/C=C/c1ccco1)NC(=S)N1CCCCC1`, the kinetic solubility was found to be 27.4 µg/mL (≈ 104 µM). This solubility kinetic and that of the molecule before are within 1.5-fold of each other.
Then `CCOC(=O)C1CCN(C(=O)COC(=O)CSc2ccccc2C)CC1`, with above 56.9 µg/mL.
